In ChEMBL document CHEMBL3132848, “Glycosidase inhibition by novel guanidinium and urea iminosugar derivatives” (Medchemcomm, 2013):

Assays:
[1] = Inhibition of naringinase in Penicillium decumbens after 30 mins by spectrophotometric analysis
[2] = Inhibition of alpha-mannosidase in jack bean after 30 mins by spectrophotometric analysis; design: species or system Canavalia ensiformis
[3] = Inhibition of beta-glucosidase in almond after 30 mins by spectrophotometric analysis; design: species or system Prunus dulcis
[4] = Inhibition of alpha-glucosidase in yeast after 30 mins by spectrophotometric analysis; design: species or system Saccharomyces cerevisiae
Beta-galactosidase = molecular target: T1, Beta-galactosidase (Bos taurus, UniProt Q58D55); experiment: Inhibition of beta-galactosidase in bovine liver after 30 mins by spectrophotometric analysis
T1 sequence (Q58D55 whole entry): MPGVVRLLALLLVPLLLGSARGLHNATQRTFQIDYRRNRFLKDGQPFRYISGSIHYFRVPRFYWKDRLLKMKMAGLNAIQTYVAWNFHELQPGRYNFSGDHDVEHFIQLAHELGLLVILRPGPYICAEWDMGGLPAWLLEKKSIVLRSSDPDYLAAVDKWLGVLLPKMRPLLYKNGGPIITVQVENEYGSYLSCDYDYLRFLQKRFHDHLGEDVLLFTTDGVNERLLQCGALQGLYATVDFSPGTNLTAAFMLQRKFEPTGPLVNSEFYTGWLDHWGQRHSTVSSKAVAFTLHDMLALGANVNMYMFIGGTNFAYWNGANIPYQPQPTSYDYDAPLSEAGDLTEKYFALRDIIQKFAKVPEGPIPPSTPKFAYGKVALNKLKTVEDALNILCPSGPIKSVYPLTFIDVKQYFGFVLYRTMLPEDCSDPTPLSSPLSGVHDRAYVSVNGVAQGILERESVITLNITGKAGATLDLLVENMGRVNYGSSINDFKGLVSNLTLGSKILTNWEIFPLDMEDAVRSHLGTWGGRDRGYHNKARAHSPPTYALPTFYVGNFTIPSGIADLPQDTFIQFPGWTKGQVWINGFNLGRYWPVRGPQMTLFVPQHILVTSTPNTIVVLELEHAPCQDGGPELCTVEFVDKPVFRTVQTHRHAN

Alpha-galactosidase = Alpha-galactosidase (Coffea arabica, UniProt Q42656); experiment: Inhibition of alpha-galactosidase in green coffee bean after 30 mins by spectrophotometric analysis
[5] = Inhibition of beta-mannosidase in Roman snail after 30 mins by spectrophotometric analysis; design: species or system Helix pomatia

Sequence of Alpha-galactosidase (Q42656 whole entry): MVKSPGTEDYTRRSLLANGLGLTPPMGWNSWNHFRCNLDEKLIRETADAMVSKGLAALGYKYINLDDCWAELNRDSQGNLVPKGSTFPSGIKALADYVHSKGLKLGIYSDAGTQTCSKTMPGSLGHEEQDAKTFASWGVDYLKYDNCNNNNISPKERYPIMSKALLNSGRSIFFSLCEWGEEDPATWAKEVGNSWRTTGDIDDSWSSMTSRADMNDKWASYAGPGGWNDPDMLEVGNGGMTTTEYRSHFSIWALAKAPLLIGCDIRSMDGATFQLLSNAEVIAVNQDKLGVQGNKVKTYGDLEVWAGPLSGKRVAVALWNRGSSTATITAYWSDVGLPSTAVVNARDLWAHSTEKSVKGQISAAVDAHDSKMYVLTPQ

Row | IC50 [1] [µM] | IC50 [2] [µM] | IC50 [3] [µM] | IC50 [4] [µM] | IC50 (Beta-galactosidase) [µM] | IC50 (Alpha-galactosidase) [µM] | IC50 [5] [µM] | SMILES
1 | 67 | 55 | 25 | 31 | 2.6 | 23 |  | CCCCCCCCNC(=N)N1C[C@H](O)[C@@H](O)[C@H](O)[C@H]1CO
2 | > 1000 | 113 | 41 | 20 | 15 | 18 | 408 | CCCCNC(=N)N1C[C@H](O)[C@@H](O)[C@H](O)[C@H]1CO
3 | 22 | > 1000 | 489 | 131 | 5.4 | > 1000 |  | N=C(NCCCOCC12CC3CC(CC(C3)C1)C2)N1C[C@H](O)[C@@H](O)[C@H](O)[C@H]1CO
4 | 27 | > 1000 | 4.3 | > 1000 | 5.1 | > 1000 |  | N=C(NCc1ccccc1)N1C[C@H](O)[C@@H](O)[C@H](O)[C@H]1CO
5 | 645 | > 1000 | 457 | 133 | > 1000 | 540 |  | N=C(NCCO)N1C[C@H](O)[C@@H](O)[C@H](O)[C@H]1CO
6 | 33 | > 1000 | 67 | > 1000 | 6.2 | > 1000 |  | N=C(NCCCc1ccccc1)N1C[C@H](O)[C@@H](O)[C@H](O)[C@H]1CO
7 | 33 | > 1000 | 312 | 167 |  |  | > 1000 | OC[C@H]1NC[C@H](O)[C@@H](O)[C@@H]1O [DUVOGLUSTAT]
8 | 172 | > 1000 | > 1000 | 251 | > 1000 | > 1000 |  | N=C(NCCOCCO)N1C[C@H](O)[C@@H](O)[C@H](O)[C@H]1CO
9 | > 1000 | > 1000 | > 1000 | > 1000 | 27 | > 1000 | > 1000 | CCCCNC(=O)N1C[C@H](O)[C@@H](O)[C@H](O)[C@H]1CO
10 | 6 | > 1000 | 59 | 134 | > 1000 | 251 | > 1000 | CCCCCCN1C[C@H](O)[C@@H](O)[C@H](O)[C@H]1CO
